# Test system: Setaria faberi (SETFA)
# Test: Herbicidal glasshouse test, pre-emergence, SETFA
# Assay type: in vivo
# Conditions: applied at 1000 g/h, evaluated after 13 days
# Protocol: (§1) Seeds of a variety of test species are sown in standard soil in pots (Alopecurus myosuroides (ALOMY), Setaria faberi (SETFA), Echinochloa crus-galli (ECHCG), Solanum nigrum (SOLNI), Amaranthus retoflexus (AMARE), Ipomoea hederacea (IPOHE)). After cultivation for one day (pre-emergence) or after 8 days cultivation (post-emergence) under controlled conditions in a glasshouse (at 24/16° C., day/night; 14 hours light; 65% humidity), the plants are sprayed with an aqueous spray solution derived from the formulation of the technical active ingredient in acetone / water (50:50) solution containing 0.5% Tween 20 (polyoxyethelyene sorbitan monolaurate, CAS RN 9005-64-5). […] The test plants are then grown in a glasshouse under controlled conditions in a glasshouse (at 24/16° C., day/night; 14 hours light; 65% humidity) and watered twice daily. After 13 days for pre and post-emergence, the test is evaluated for the percentage damage caused to the plant. The biological activities are shown in the following table on a five point scale (5=80-100%; 4=60-79%; 3=40-59%; 2=20-39%; 1=0-19%).
row,SMILES,"PRE Application SETFA, percentage damage (five point scale)"
1,C=CCn1nc(C(=O)Nc2nnnn2C)c(=O)n(-c2ccc(F)cc2)c1=O [Compound 1.011],4 (4=60-79%)
2,CC#CCn1nc(C(=O)Nc2nnnn2C)c(=O)n(-c2cccc(F)c2)c1=O [Compound 1.012],1 (1=0-19%)
3,CC(C)CCn1nc(C(=O)Nc2nnnn2C)c(=O)n(-c2cccc(F)c2)c1=O [Compound 1.013],1 (1=0-19%)
4,C=CCn1nc(C(=O)Nc2nnnn2C)c(=O)n(Cc2cccc(F)c2)c1=O [Compound 1.014],1 (1=0-19%)
5,Cn1nnnc1NC(=O)c1nn(C)c(=O)n(-c2ccc(F)cc2)c1=O [Compound 1.015],5 (5=80-100%)

# Test system: Amaranthus retoflexus (AMARE)
# Test: Herbicidal glasshouse test, post-emergence, AMARE
# Assay type: in vivo
# Conditions: applied at 1000 g/h, evaluated after 13 days
# Protocol: as §1
row,SMILES,"POST Application AMARE, percentage damage (five point scale)"
1,C=CCn1nc(C(=O)Nc2nnnn2C)c(=O)n(-c2ccc(F)cc2)c1=O [Compound 1.011],5 (5=80-100%)
2,CC#CCn1nc(C(=O)Nc2nnnn2C)c(=O)n(-c2cccc(F)c2)c1=O [Compound 1.012],5 (5=80-100%)
3,CC(C)CCn1nc(C(=O)Nc2nnnn2C)c(=O)n(-c2cccc(F)c2)c1=O [Compound 1.013],2 (2=20-39%)
4,C=CCn1nc(C(=O)Nc2nnnn2C)c(=O)n(Cc2cccc(F)c2)c1=O [Compound 1.014],5 (5=80-100%)
5,Cn1nnnc1NC(=O)c1nn(C)c(=O)n(-c2ccc(F)cc2)c1=O [Compound 1.015],5 (5=80-100%)

# Test system: Ipomoea hederacea (IPOHE)
# Test: Herbicidal glasshouse test, pre-emergence, IPOHE
# Assay type: in vivo
# Conditions: applied at 1000 g/h, evaluated after 13 days
# Protocol: as §1
row,SMILES,"PRE Application IPOHE, percentage damage (five point scale)"
1,C=CCn1nc(C(=O)Nc2nnnn2C)c(=O)n(-c2ccc(F)cc2)c1=O [Compound 1.011],5 (5=80-100%)
2,CC#CCn1nc(C(=O)Nc2nnnn2C)c(=O)n(-c2cccc(F)c2)c1=O [Compound 1.012],5 (5=80-100%)
3,CC(C)CCn1nc(C(=O)Nc2nnnn2C)c(=O)n(-c2cccc(F)c2)c1=O [Compound 1.013],2 (2=20-39%)
4,C=CCn1nc(C(=O)Nc2nnnn2C)c(=O)n(Cc2cccc(F)c2)c1=O [Compound 1.014],5 (5=80-100%)
5,Cn1nnnc1NC(=O)c1nn(C)c(=O)n(-c2ccc(F)cc2)c1=O [Compound 1.015],5 (5=80-100%)

# Test system: Alopecurus myosuroides (ALOMY)
# Test: Herbicidal glasshouse test, pre-emergence, ALOMY
# Assay type: in vivo
# Conditions: applied at 1000 g/h, evaluated after 13 days
# Protocol: as §1
row,SMILES,"PRE Application ALOMY, percentage damage (five point scale)"
1,C=CCn1nc(C(=O)Nc2nnnn2C)c(=O)n(-c2ccc(F)cc2)c1=O [Compound 1.011],4 (4=60-79%)
2,CC#CCn1nc(C(=O)Nc2nnnn2C)c(=O)n(-c2cccc(F)c2)c1=O [Compound 1.012],4 (4=60-79%)
3,CC(C)CCn1nc(C(=O)Nc2nnnn2C)c(=O)n(-c2cccc(F)c2)c1=O [Compound 1.013],1 (1=0-19%)
4,C=CCn1nc(C(=O)Nc2nnnn2C)c(=O)n(Cc2cccc(F)c2)c1=O [Compound 1.014],3 (3=40-59%)
5,Cn1nnnc1NC(=O)c1nn(C)c(=O)n(-c2ccc(F)cc2)c1=O [Compound 1.015],5 (5=80-100%)

# Test system: Solanum nigrum (SOLNI)
# Test: Herbicidal glasshouse test, pre-emergence, SOLNI
# Assay type: in vivo
# Conditions: applied at 1000 g/h, evaluated after 13 days
# Protocol: as §1
row,SMILES,"PRE Application SOLNI, percentage damage (five point scale)"
1,C=CCn1nc(C(=O)Nc2nnnn2C)c(=O)n(-c2ccc(F)cc2)c1=O [Compound 1.011],5 (5=80-100%)
2,CC#CCn1nc(C(=O)Nc2nnnn2C)c(=O)n(-c2cccc(F)c2)c1=O [Compound 1.012],5 (5=80-100%)
3,CC(C)CCn1nc(C(=O)Nc2nnnn2C)c(=O)n(-c2cccc(F)c2)c1=O [Compound 1.013],3 (3=40-59%)
4,C=CCn1nc(C(=O)Nc2nnnn2C)c(=O)n(Cc2cccc(F)c2)c1=O [Compound 1.014],5 (5=80-100%)
5,Cn1nnnc1NC(=O)c1nn(C)c(=O)n(-c2ccc(F)cc2)c1=O [Compound 1.015],5 (5=80-100%)

# Test system: Solanum nigrum (SOLNI)
# Test: Herbicidal glasshouse test, post-emergence, SOLNI
# Assay type: in vivo
# Conditions: applied at 1000 g/h, evaluated after 13 days
# Protocol: as §1
row,SMILES,"POST Application SOLNI, percentage damage (five point scale)"
1,C=CCn1nc(C(=O)Nc2nnnn2C)c(=O)n(-c2ccc(F)cc2)c1=O [Compound 1.011],5 (5=80-100%)
2,CC#CCn1nc(C(=O)Nc2nnnn2C)c(=O)n(-c2cccc(F)c2)c1=O [Compound 1.012],5 (5=80-100%)
3,CC(C)CCn1nc(C(=O)Nc2nnnn2C)c(=O)n(-c2cccc(F)c2)c1=O [Compound 1.013],5 (5=80-100%)
4,C=CCn1nc(C(=O)Nc2nnnn2C)c(=O)n(Cc2cccc(F)c2)c1=O [Compound 1.014],5 (5=80-100%)
5,Cn1nnnc1NC(=O)c1nn(C)c(=O)n(-c2ccc(F)cc2)c1=O [Compound 1.015],5 (5=80-100%)

# Test system: Echinochloa crus-galli (ECHCG)
# Test: Herbicidal glasshouse test, post-emergence, ECHCG
# Assay type: in vivo
# Conditions: applied at 1000 g/h, evaluated after 13 days
# Protocol: as §1
row,SMILES,"POST Application ECHCG, percentage damage (five point scale)"
1,C=CCn1nc(C(=O)Nc2nnnn2C)c(=O)n(-c2ccc(F)cc2)c1=O [Compound 1.011],5 (5=80-100%)
2,CC#CCn1nc(C(=O)Nc2nnnn2C)c(=O)n(-c2cccc(F)c2)c1=O [Compound 1.012],5 (5=80-100%)
3,CC(C)CCn1nc(C(=O)Nc2nnnn2C)c(=O)n(-c2cccc(F)c2)c1=O [Compound 1.013],1 (1=0-19%)
4,C=CCn1nc(C(=O)Nc2nnnn2C)c(=O)n(Cc2cccc(F)c2)c1=O [Compound 1.014],4 (4=60-79%)
5,Cn1nnnc1NC(=O)c1nn(C)c(=O)n(-c2ccc(F)cc2)c1=O [Compound 1.015],5 (5=80-100%)

# Test system: Amaranthus retoflexus (AMARE)
# Test: Herbicidal glasshouse test, pre-emergence, AMARE
# Assay type: in vivo
# Conditions: applied at 1000 g/h, evaluated after 13 days
# Protocol: as §1
row,SMILES,"PRE Application AMARE, percentage damage (five point scale)"
1,C=CCn1nc(C(=O)Nc2nnnn2C)c(=O)n(-c2ccc(F)cc2)c1=O [Compound 1.011],5 (5=80-100%)
2,CC#CCn1nc(C(=O)Nc2nnnn2C)c(=O)n(-c2cccc(F)c2)c1=O [Compound 1.012],4 (4=60-79%)
3,CC(C)CCn1nc(C(=O)Nc2nnnn2C)c(=O)n(-c2cccc(F)c2)c1=O [Compound 1.013],2 (2=20-39%)
4,C=CCn1nc(C(=O)Nc2nnnn2C)c(=O)n(Cc2cccc(F)c2)c1=O [Compound 1.014],5 (5=80-100%)
5,Cn1nnnc1NC(=O)c1nn(C)c(=O)n(-c2ccc(F)cc2)c1=O [Compound 1.015],5 (5=80-100%)

# Test system: Echinochloa crus-galli (ECHCG)
# Test: Herbicidal glasshouse test, pre-emergence, ECHCG
# Assay type: in vivo
# Conditions: applied at 1000 g/h, evaluated after 13 days
# Protocol: as §1
row,SMILES,"PRE Application ECHCG, percentage damage (five point scale)"
1,C=CCn1nc(C(=O)Nc2nnnn2C)c(=O)n(-c2ccc(F)cc2)c1=O [Compound 1.011],5 (5=80-100%)
2,CC#CCn1nc(C(=O)Nc2nnnn2C)c(=O)n(-c2cccc(F)c2)c1=O [Compound 1.012],3 (3=40-59%)
3,CC(C)CCn1nc(C(=O)Nc2nnnn2C)c(=O)n(-c2cccc(F)c2)c1=O [Compound 1.013],1 (1=0-19%)
4,C=CCn1nc(C(=O)Nc2nnnn2C)c(=O)n(Cc2cccc(F)c2)c1=O [Compound 1.014],5 (5=80-100%)
5,Cn1nnnc1NC(=O)c1nn(C)c(=O)n(-c2ccc(F)cc2)c1=O [Compound 1.015],5 (5=80-100%)

# Test system: Alopecurus myosuroides (ALOMY)
# Test: Herbicidal glasshouse test, post-emergence, ALOMY
# Assay type: in vivo
# Conditions: applied at 1000 g/h, evaluated after 13 days
# Protocol: as §1
row,SMILES,"POST Application ALOMY, percentage damage (five point scale)"
1,C=CCn1nc(C(=O)Nc2nnnn2C)c(=O)n(-c2ccc(F)cc2)c1=O [Compound 1.011],5 (5=80-100%)
2,CC#CCn1nc(C(=O)Nc2nnnn2C)c(=O)n(-c2cccc(F)c2)c1=O [Compound 1.012],5 (5=80-100%)
3,CC(C)CCn1nc(C(=O)Nc2nnnn2C)c(=O)n(-c2cccc(F)c2)c1=O [Compound 1.013],5 (5=80-100%)
4,C=CCn1nc(C(=O)Nc2nnnn2C)c(=O)n(Cc2cccc(F)c2)c1=O [Compound 1.014],2 (2=20-39%)
5,Cn1nnnc1NC(=O)c1nn(C)c(=O)n(-c2ccc(F)cc2)c1=O [Compound 1.015],5 (5=80-100%)

# Test system: Ipomoea hederacea (IPOHE)
# Test: Herbicidal glasshouse test, post-emergence, IPOHE
# Assay type: in vivo
# Conditions: applied at 1000 g/h, evaluated after 13 days
# Protocol: as §1
row,SMILES,"POST Application IPOHE, percentage damage (five point scale)"
1,C=CCn1nc(C(=O)Nc2nnnn2C)c(=O)n(-c2ccc(F)cc2)c1=O [Compound 1.011],5 (5=80-100%)
2,CC#CCn1nc(C(=O)Nc2nnnn2C)c(=O)n(-c2cccc(F)c2)c1=O [Compound 1.012],4 (4=60-79%)
3,CC(C)CCn1nc(C(=O)Nc2nnnn2C)c(=O)n(-c2cccc(F)c2)c1=O [Compound 1.013],4 (4=60-79%)
4,C=CCn1nc(C(=O)Nc2nnnn2C)c(=O)n(Cc2cccc(F)c2)c1=O [Compound 1.014],5 (5=80-100%)
5,Cn1nnnc1NC(=O)c1nn(C)c(=O)n(-c2ccc(F)cc2)c1=O [Compound 1.015],5 (5=80-100%)

# Test system: Setaria faberi (SETFA)
# Test: Herbicidal glasshouse test, post-emergence, SETFA
# Assay type: in vivo
# Conditions: applied at 1000 g/h, evaluated after 13 days
# Protocol: as §1
row,SMILES,"POST Application SETFA, percentage damage (five point scale)"
1,C=CCn1nc(C(=O)Nc2nnnn2C)c(=O)n(-c2ccc(F)cc2)c1=O [Compound 1.011],5 (5=80-100%)
2,CC#CCn1nc(C(=O)Nc2nnnn2C)c(=O)n(-c2cccc(F)c2)c1=O [Compound 1.012],5 (5=80-100%)
3,CC(C)CCn1nc(C(=O)Nc2nnnn2C)c(=O)n(-c2cccc(F)c2)c1=O [Compound 1.013],3 (3=40-59%)
4,C=CCn1nc(C(=O)Nc2nnnn2C)c(=O)n(Cc2cccc(F)c2)c1=O [Compound 1.014],5 (5=80-100%)
5,Cn1nnnc1NC(=O)c1nn(C)c(=O)n(-c2ccc(F)cc2)c1=O [Compound 1.015],5 (5=80-100%)

# From patent US20160009693A1, “HERBICIDAL COMPOUNDS” (SYNGENTA LIMITED, priority 2013, published 2016)
